Six compounds from ChEMBL document CHEMBL5465560, “Selectivity Literature for EUbOPEN Chemogenomic Library” (2024) can be followed below.

Assay [1] has as its target Myosin-IIIa (Homo sapiens) (UniProt Q8NEV4). As to the kind of experiment: Selectivity interaction (Ambit KINOMEscan and KiNATiv profiling in Jurkat cells) EUB0000090b MYO3A. It is filed as cell-based. Particulars: at 1 µM.
The target of assay [2] is T1, Phosphatidylinositol 4,5-bisphosphate 3-kinase catalytic subunit delta isoform (Homo sapiens) (UniProt O00329).
T1 sequence (whole entry): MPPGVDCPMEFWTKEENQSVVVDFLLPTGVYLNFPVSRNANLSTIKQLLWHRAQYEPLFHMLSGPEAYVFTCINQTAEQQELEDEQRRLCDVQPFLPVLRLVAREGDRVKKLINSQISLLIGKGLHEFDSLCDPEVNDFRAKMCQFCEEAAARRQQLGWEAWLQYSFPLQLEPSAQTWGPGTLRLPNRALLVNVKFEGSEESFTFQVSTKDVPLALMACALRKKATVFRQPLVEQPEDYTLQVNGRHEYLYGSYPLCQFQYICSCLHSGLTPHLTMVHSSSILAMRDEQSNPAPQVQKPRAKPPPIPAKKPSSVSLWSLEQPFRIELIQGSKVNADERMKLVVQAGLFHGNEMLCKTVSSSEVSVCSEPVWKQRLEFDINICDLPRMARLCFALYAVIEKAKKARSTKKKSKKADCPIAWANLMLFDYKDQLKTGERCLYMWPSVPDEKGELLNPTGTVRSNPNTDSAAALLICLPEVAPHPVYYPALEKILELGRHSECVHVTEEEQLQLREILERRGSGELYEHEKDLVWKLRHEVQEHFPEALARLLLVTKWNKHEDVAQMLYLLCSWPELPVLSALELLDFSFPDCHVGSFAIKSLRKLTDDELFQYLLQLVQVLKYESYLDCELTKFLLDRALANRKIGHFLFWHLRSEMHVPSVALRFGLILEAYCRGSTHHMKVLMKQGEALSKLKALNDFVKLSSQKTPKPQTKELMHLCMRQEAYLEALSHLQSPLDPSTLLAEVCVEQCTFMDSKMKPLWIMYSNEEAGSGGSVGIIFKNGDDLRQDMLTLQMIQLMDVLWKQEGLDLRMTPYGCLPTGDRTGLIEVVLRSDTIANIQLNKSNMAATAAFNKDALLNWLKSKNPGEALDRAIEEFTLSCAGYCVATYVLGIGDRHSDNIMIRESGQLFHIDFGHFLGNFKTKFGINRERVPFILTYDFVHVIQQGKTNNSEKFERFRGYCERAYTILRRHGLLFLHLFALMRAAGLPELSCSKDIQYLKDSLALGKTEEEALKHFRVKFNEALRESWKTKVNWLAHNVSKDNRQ
The experiment in a line: Selectivity interaction (Ambit KINOMEscan and KiNATiv profiling in Jurkat cells) EUB0000090b PIK3CD. The settings on record: at 1 µM. It is filed as cell-based.

The target of assay [3] is Histone-lysine N-methyltransferase 2C (Homo sapiens) (UniProt Q8NEZ4). As to the kind of experiment: Selectivity interaction (Methyltransferase screen (radiometric assays, panel of 8 PRMTs, 21 protein lysine methyltransferases, 3 DNA methyltransferases, and one RNA methyltransferase)) EUB0000271b MLL3.
Sequence of Histone-lysine N-methyltransferase 2C (Homo sapiens) (Q8NEZ4 whole entry): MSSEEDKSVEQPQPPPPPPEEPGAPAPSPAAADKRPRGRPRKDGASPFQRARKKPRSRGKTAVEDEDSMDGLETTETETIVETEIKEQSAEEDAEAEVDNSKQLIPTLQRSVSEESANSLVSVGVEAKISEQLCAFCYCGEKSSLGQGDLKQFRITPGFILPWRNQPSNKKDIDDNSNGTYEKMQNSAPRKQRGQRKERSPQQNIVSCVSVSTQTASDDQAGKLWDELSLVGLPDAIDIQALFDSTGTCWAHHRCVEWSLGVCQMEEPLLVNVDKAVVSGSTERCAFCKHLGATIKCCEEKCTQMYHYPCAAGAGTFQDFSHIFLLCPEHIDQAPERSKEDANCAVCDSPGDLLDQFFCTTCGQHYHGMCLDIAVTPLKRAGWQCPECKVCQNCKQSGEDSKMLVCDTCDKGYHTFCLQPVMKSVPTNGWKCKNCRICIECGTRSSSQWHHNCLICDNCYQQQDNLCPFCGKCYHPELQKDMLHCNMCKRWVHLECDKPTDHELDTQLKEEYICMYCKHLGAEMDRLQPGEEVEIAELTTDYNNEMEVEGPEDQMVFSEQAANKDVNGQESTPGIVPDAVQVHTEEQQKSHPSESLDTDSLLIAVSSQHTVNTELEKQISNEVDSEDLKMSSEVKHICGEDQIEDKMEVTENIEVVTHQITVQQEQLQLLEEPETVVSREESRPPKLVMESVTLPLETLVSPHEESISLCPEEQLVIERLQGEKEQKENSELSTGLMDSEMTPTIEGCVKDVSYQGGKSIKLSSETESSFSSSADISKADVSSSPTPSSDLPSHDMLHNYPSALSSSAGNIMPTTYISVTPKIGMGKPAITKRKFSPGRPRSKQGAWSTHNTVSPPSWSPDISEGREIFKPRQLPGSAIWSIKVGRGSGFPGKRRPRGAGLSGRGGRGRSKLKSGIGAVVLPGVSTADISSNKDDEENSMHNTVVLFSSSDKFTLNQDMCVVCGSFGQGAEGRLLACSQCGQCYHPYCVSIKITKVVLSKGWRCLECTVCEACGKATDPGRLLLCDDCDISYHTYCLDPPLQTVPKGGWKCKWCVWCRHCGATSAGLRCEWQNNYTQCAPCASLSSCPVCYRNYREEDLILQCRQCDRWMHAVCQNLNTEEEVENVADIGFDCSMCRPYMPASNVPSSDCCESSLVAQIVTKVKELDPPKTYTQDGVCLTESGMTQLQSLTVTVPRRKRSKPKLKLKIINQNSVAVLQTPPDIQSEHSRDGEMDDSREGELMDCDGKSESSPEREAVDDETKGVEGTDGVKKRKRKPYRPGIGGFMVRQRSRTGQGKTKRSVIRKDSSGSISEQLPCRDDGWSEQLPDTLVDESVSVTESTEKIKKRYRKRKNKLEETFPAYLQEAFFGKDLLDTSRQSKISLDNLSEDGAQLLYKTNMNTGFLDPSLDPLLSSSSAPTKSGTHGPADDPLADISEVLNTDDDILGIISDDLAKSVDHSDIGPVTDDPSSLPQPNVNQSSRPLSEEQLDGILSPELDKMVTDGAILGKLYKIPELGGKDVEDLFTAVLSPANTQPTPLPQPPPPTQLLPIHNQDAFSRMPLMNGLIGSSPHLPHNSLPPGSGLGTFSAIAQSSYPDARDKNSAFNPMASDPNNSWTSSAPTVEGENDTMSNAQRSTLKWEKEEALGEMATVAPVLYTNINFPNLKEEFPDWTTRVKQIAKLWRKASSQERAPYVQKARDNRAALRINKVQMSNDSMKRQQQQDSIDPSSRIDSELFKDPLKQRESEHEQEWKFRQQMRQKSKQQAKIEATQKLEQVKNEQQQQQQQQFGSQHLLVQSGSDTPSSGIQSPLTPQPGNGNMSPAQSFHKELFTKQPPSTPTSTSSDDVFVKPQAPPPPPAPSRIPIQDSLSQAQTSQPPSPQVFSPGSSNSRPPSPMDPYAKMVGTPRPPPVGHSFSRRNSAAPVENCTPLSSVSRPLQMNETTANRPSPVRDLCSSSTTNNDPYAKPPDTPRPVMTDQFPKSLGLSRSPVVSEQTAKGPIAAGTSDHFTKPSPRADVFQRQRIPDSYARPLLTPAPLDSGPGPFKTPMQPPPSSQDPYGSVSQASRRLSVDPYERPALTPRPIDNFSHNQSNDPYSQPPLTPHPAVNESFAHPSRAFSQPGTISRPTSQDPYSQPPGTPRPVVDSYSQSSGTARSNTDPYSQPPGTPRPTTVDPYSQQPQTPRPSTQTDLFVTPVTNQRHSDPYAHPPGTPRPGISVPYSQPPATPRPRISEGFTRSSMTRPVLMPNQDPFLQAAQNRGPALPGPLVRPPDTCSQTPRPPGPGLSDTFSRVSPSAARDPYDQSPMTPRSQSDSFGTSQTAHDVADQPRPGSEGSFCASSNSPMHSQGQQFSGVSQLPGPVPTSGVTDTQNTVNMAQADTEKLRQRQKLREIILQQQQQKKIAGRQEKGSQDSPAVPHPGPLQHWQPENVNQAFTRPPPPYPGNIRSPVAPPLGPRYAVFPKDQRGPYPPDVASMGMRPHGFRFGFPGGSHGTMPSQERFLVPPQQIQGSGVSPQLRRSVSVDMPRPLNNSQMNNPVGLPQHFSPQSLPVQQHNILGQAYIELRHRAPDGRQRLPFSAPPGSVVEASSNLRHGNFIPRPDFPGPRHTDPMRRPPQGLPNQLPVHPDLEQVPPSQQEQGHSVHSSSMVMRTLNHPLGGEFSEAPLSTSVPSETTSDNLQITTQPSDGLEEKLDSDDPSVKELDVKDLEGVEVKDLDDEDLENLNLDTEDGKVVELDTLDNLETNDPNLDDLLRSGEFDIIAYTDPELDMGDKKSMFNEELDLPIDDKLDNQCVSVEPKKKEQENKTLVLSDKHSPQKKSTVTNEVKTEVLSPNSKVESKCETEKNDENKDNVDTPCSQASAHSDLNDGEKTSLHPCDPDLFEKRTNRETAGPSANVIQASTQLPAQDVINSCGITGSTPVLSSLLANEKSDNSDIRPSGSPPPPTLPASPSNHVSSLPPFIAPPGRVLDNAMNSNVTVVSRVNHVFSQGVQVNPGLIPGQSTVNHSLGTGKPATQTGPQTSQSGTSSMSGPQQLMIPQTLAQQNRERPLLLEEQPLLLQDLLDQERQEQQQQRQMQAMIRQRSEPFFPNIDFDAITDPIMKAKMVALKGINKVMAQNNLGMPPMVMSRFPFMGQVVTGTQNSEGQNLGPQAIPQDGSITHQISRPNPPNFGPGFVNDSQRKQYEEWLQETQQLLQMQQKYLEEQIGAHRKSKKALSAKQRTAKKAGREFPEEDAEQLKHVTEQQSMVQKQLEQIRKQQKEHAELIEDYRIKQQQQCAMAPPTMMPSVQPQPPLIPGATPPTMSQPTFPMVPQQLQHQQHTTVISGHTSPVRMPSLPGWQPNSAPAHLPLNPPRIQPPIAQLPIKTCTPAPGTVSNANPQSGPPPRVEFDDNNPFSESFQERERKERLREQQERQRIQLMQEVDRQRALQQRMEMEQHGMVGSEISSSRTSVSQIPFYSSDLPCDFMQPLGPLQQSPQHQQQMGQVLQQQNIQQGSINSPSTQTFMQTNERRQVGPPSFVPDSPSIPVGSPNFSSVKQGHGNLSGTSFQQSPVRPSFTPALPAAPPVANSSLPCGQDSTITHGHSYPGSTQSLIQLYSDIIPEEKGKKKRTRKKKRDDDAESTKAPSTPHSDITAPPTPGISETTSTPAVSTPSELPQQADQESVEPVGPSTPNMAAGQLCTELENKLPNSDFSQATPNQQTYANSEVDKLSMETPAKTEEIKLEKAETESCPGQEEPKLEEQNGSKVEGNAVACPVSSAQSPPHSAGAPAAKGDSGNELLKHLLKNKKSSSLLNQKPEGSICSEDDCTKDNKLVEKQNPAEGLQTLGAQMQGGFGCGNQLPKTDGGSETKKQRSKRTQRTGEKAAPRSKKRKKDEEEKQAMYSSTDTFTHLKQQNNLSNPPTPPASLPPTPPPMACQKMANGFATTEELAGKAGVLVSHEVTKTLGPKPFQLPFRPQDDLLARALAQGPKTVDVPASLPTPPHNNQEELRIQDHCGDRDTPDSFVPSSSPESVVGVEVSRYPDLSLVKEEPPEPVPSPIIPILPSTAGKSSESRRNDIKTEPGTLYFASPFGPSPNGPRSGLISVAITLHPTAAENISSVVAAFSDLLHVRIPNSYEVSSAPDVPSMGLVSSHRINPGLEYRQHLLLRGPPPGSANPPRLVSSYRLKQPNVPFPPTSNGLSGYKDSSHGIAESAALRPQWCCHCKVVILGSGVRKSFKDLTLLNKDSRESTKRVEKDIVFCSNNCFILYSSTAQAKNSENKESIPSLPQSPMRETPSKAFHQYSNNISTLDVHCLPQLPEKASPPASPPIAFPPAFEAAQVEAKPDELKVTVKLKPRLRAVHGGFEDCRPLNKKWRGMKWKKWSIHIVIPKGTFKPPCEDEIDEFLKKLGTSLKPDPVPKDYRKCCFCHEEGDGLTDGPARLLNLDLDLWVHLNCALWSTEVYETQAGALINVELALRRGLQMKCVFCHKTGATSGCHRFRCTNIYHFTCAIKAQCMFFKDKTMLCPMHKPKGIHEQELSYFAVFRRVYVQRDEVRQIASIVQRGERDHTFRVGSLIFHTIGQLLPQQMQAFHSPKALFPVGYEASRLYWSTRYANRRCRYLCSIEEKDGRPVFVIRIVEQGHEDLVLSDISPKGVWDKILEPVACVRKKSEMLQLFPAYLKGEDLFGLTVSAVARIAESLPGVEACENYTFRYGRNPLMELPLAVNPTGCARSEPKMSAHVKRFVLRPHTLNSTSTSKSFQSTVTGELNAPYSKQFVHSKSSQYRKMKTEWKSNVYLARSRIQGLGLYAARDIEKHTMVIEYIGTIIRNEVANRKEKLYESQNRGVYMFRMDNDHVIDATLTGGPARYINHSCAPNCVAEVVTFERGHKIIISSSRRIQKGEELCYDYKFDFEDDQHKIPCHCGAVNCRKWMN
Assay [4] is described as follows: Selectivity interaction (KinomeScan (DiscoverX)) EUB0000229b PKNB. The settings on record: at 1 µM.
In assay [5] the target is T2, Serine/threonine-protein kinase Sgk1 (Homo sapiens) (UniProt O00141).
T2 sequence (whole entry): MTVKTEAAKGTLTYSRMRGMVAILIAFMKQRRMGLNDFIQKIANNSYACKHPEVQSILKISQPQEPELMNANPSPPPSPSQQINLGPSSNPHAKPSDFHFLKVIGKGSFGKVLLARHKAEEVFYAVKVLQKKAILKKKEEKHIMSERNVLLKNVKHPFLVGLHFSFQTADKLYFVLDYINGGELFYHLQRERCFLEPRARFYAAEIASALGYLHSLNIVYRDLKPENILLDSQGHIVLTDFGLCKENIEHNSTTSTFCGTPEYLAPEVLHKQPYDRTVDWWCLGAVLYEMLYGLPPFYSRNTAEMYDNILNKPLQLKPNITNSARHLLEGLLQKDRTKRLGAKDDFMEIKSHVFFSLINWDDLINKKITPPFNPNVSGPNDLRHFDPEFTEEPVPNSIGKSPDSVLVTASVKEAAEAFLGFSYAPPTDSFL
The experiment in a line: Selectivity interaction (Kinase panel (literature)) EUB0001199aCl SGK1. The settings on record: at 1 µM.

The target in assay [6] is Ribosomal protein S6 kinase alpha-2 (Homo sapiens) (UniProt Q15349). The experiment in a line: Selectivity interaction (ActivX KiNativ screen (kinase selectivity in THP-1 cell lysates)) EUB0000639a RPS6KA2. The assay is classed as subcellular. The settings on record: lysate, at 0.2 µM.
The target in assay [7] is T3, Serine/threonine-protein kinase DCLK1 (Homo sapiens) (UniProt O15075).
T3 sequence (whole entry): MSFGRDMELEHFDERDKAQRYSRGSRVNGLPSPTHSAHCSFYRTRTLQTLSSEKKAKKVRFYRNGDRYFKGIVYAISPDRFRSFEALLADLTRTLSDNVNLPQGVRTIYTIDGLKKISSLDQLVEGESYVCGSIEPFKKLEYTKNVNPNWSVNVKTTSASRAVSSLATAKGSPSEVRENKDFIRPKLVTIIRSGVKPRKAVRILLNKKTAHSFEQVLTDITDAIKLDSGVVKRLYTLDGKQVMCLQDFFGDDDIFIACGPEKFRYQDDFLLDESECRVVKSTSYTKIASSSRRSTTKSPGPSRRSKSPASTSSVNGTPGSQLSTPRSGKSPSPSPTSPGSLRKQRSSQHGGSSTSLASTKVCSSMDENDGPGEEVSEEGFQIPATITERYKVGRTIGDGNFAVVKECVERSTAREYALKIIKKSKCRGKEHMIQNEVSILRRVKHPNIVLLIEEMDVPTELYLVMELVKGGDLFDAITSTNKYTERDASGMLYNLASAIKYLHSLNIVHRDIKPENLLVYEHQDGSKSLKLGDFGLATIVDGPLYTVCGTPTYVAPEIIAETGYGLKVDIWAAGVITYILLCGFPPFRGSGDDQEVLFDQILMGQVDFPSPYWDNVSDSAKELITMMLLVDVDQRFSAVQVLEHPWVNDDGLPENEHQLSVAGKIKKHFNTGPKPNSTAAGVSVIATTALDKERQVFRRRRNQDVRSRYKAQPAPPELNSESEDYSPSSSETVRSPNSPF
As to the kind of experiment: Selectivity interaction (KinomeScan (DiscoverX)) EUB0000618a DCLK1. The settings on record: at 10 µM.

With `CN(C)C/C=C/C(=O)Nc1ccc(C(=O)N2CCCC(Nc3ncc(Cl)c(-c4c[nH]c5ccccc45)n3)C2)cc1` (stereo not drawn), the % of control in assay [1] and in assay [2] was 100% each time.

For `Cc1cc(C)cc([C@@H]2c3cc(C)ccc3NC(=O)CN2C(=O)c2ccc(Br)s2)c1`, the % of activity is 104% in assay [3] (at 1 µM) and 97% in assay [3] (at 10 µM).

In assay [4], `COc1cc(N(C)c2ccnc3ccc(C(F)(F)F)cc23)cc(OC)c1OC` had a % binding of 100%.

`CN1Cc2nccc(-c3cn(C)nc3-c3ccc(F)cc3)c2C1=O` registered a % of inhibition in assay [5] of 2%.

The compound `CC[C@@H]1[C@H](F)C(=O)N[C@@H]1COc1nccc2cc(C(N)=O)c(OC)cc12` [ZIMLOVISERTIB] showed a % of inhibition in assay [6] of 2.6%.

With `O[C@H]1CC[C@H](Nc2ncc3nc(Nc4c(F)cc(F)cc4F)n([C@H]4CCOC4)c3n2)CC1`, in assay [7], the % of control was 81%.
